Measurements published in ChEMBL document CHEMBL1201862, “PubChem BioAssay data set” (2004).
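Compound exposure: 48 hours, 5 concentrations, 96-well plates. Here, GI50 denotes the concentration required for 50% inhibition of growth.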 Calls of active or inactive are those of the source. Rule as the data show it: active = GI50 up to about 1.1 µM and inactive = higher.

Tests used:
Test in all cases: NCI anticancer screen, dose series, 48 h
COLO 205 = test system: COLO 205
NCI-H522 = test system: NCI-H522
SK-OV-3 = test system: SK-OV-3
HOP-92 = test system: HOP-92
NCI-H226 = test system: NCI-H226
SF-268 = test system: SF-268
CAKI-1 = test system: CAKI-1
UACC-62 = test system: UACC-62
SF-295 = test system: SF-295
UACC-257 = test system: UACC-257
A498 = test system: A498
NCI/ADR-RES = test system: NCI/ADR-RES
HT-29 = test system: HT-29
HCT-116 = test system: HCT-116
OVCAR-8 = test system: OVCAR-8
SK-MEL-2 = test system: SK-MEL-2
MDA-MB-435 = test system: MDA-MB-435
T47D = test system: T47D
SK-MEL-28 = test system: SK-MEL-28
IGROV-1 = test system: IGROV-1

Measured: GI50

Cc1nnc([C@@]2(C)CC[C@H]3[C@@H](CC=C4C[C@@H](O)CC[C@@]43C)[C@@H]2CC#N)o1
inactive: COLO 205 > 100 µM | NCI-H522 22.5 µM | SK-OV-3 > 100 µM | HOP-92 > 100 µM | NCI-H226 > 100 µM | SF-268 > 100 µM | CAKI-1 > 100 µM | UACC-62 > 100 µM | SF-295 > 100 µM | UACC-257 97.5 µM | A498 > 100 µM | NCI/ADR-RES > 100 µM | HT-29 > 100 µM | HCT-116 > 100 µM | OVCAR-8 > 100 µM | SK-MEL-2 > 100 µM | MDA-MB-435 > 100 µM

C/C(=C\COP(=O)(O)OP(=O)(O)O)CC/C=C(\C)CNc1ccccc1
inactive: COLO 205 > 50 µM | NCI-H522 > 50 µM | T47D 27.4 µM | SK-OV-3 > 50 µM | NCI-H226 > 50 µM | SF-268 > 50 µM | CAKI-1 > 50 µM | UACC-62 > 50 µM | SF-295 > 50 µM | UACC-257 43 µM | NCI/ADR-RES > 50 µM | SK-MEL-28 > 50 µM | IGROV-1 11 µM | HT-29 > 50 µM | HCT-116 > 50 µM | OVCAR-8 > 50 µM | SK-MEL-2 > 50 µM | MDA-MB-435 > 50 µM

CCCCCC[C@H]1CC(=O)C2CCCC[C@@]23CC[C@H](CCl)N13.CCCCCC[C@H]1CC(=O)C2CCCC[C@@]23C[C@H](Cl)CN13 (stereo partly drawn)
inactive: COLO 205 10 µM | NCI-H522 17.9 µM | SK-OV-3 > 100 µM | HOP-92 24.2 µM | SF-268 65.2 µM | CAKI-1 58.9 µM | UACC-62 48.1 µM | SF-295 51.2 µM | UACC-257 43 µM | A498 > 100 µM | SK-MEL-28 38.1 µM | IGROV-1 > 100 µM | HT-29 61.9 µM | HCT-116 51.9 µM | OVCAR-8 25.4 µM | SK-MEL-2 > 100 µM | MDA-MB-435 57.8 µM

CCOP(=O)(CC(=O)C1CC1)OCC
inactive: COLO 205 > 100 µM | NCI-H522 > 100 µM | T47D > 100 µM | SK-OV-3 > 100 µM | NCI-H226 > 100 µM | SF-268 > 100 µM | CAKI-1 > 100 µM | UACC-62 > 100 µM | SF-295 > 100 µM | UACC-257 > 100 µM | NCI/ADR-RES > 100 µM | SK-MEL-28 > 100 µM | IGROV-1 > 100 µM | HT-29 > 100 µM | HCT-116 > 100 µM | OVCAR-8 > 100 µM | SK-MEL-2 > 100 µM

c1ccc2c(c1)SCCCS2
inactive: COLO 205 > 100 µM | NCI-H522 > 100 µM | T47D > 100 µM | SK-OV-3 > 100 µM | HOP-92 22.4 µM | SF-268 > 100 µM | UACC-62 > 100 µM | SF-295 > 100 µM | UACC-257 > 100 µM | NCI/ADR-RES > 100 µM | SK-MEL-28 > 100 µM | IGROV-1 > 100 µM | HT-29 > 100 µM | HCT-116 > 100 µM | OVCAR-8 > 100 µM | MDA-MB-435 > 100 µM

CO/C(=N\N=C\c1ccc(C(F)(F)F)cc1)c1ccncc1
inactive: COLO 205 > 10 µM | NCI-H522 > 10 µM | T47D > 10 µM | HOP-92 > 10 µM | NCI-H226 > 10 µM | SF-268 > 10 µM | CAKI-1 > 10 µM | SF-295 > 10 µM | UACC-257 > 10 µM | NCI/ADR-RES > 10 µM | HT-29 > 10 µM | HCT-116 > 10 µM | OVCAR-8 > 10 µM | SK-MEL-2 > 10 µM | MDA-MB-435 > 10 µM

NC(=O)C1Cc2cc3c(cc21)OCO3 (stereo not drawn)
inactive: COLO 205 > 100 µM | NCI-H522 > 100 µM | SK-OV-3 > 100 µM | NCI-H226 > 100 µM | SF-268 > 100 µM | CAKI-1 > 100 µM | UACC-62 > 100 µM | SF-295 > 100 µM | UACC-257 > 100 µM | NCI/ADR-RES > 100 µM | IGROV-1 > 100 µM | HT-29 > 100 µM | HCT-116 > 100 µM | OVCAR-8 > 100 µM

COc1ccc(N[S+]([O-])c2c(C)cc(C)cc2C)cc1 (stereo not drawn)
inactive: COLO 205 > 100 µM | NCI-H522 19.1 µM | T47D 34 µM | NCI-H226 36.2 µM | SF-268 21.6 µM | UACC-62 33.7 µM | SF-295 > 100 µM | UACC-257 70.1 µM | NCI/ADR-RES 49.8 µM | SK-MEL-28 > 100 µM | IGROV-1 22.5 µM | HT-29 46.1 µM | HCT-116 14.4 µM | OVCAR-8 72.1 µM | SK-MEL-2 > 100 µM | MDA-MB-435 21.2 µM

Cn1ncnc1CCc1ccccc1
inactive: COLO 205 > 100 µM | NCI-H522 > 100 µM | SK-OV-3 > 100 µM | HOP-92 > 100 µM | NCI-H226 > 100 µM | SF-268 > 100 µM | CAKI-1 > 100 µM | UACC-62 > 100 µM | SF-295 > 100 µM | UACC-257 > 100 µM | A498 > 100 µM | SK-MEL-28 > 100 µM | IGROV-1 > 100 µM | HT-29 > 100 µM | HCT-116 > 100 µM | OVCAR-8 > 100 µM | SK-MEL-2 > 100 µM

COc1cc(Nc2cnc3ccc(N)cc3n2)cc(OC)c1OC
inactive: COLO 205 42.5 µM | NCI-H522 50.1 µM | SK-OV-3 > 86.9 µM | HOP-92 61.2 µM | NCI-H226 > 100 µM | SF-268 > 100 µM | CAKI-1 59.2 µM | UACC-62 69.3 µM | SF-295 > 96.6 µM | UACC-257 > 57 µM | A498 > 100 µM | SK-MEL-28 78.2 µM | IGROV-1 80.4 µM | HT-29 48.9 µM | HCT-116 > 94.6 µM | OVCAR-8 > 100 µM | SK-MEL-2 > 100 µM

O=C(CCN1CCCCC1CCO)Nc1ccc2c(c1)C(=O)c1ccc(NC(=O)CCN3CCCCC3CCO)cc1C2=O (stereo not drawn)
inactive: COLO 205 2.11 µM | NCI-H522 2.16 µM | SK-OV-3 5.12 µM | HOP-92 13.2 µM | NCI-H226 5.71 µM | SF-268 4.88 µM | CAKI-1 23.7 µM | UACC-62 2.44 µM | SF-295 16.7 µM | UACC-257 5.33 µM | A498 1.86 µM | SK-MEL-28 10.1 µM | IGROV-1 4.9 µM | HT-29 5.52 µM | HCT-116 4.11 µM | OVCAR-8 3.73 µM | SK-MEL-2 2.49 µM

COC(=O)C(=O)C(C(=O)C=C(C)C)C(=O)C(=O)Nc1ccc(Cl)cc1C (stereo not drawn)
inactive: COLO 205 > 100 µM | NCI-H522 69.2 µM | SK-OV-3 > 100 µM | HOP-92 > 100 µM | NCI-H226 > 100 µM | SF-268 > 100 µM | CAKI-1 > 100 µM | UACC-62 > 100 µM | SF-295 > 100 µM | UACC-257 > 100 µM | A498 > 100 µM | SK-MEL-28 > 100 µM | IGROV-1 > 100 µM | HT-29 > 100 µM | HCT-116 > 100 µM | OVCAR-8 > 100 µM | SK-MEL-2 > 100 µM
